Reference: patent US20080279843A1, “Method For Improving Insulin Sensitivity By Administering an Inhibitor of Antitrypsin” (Essential SkinCare, LLC, priority 2003, published 2008)

Tested on: differentiated rat L6 muscle cells
Assay: Synthesis of [14C]glycogen from radiolabeled glucose
Format: cell-based
Experimental: Rat L6 skeletal muscle cells were obtained from the American Type Culture Collection, Rockville, Md. L6 cell monolayers were induced to differentiate in Minimal Essential Medium (MEM) containing 2% (v/v) fetal bovine serum (FBS) and 1% (v/v) antibiotic/antimycotic solution. The cells were fed fresh medium every 48 hours. Myoblast differentiation, which occurred by about the 7-9th day, was monitored by phase contrast microscopy. Differentiated L6 cells are widely used models for studying glucose metabolism in the skeletal muscle. The present study was focused on these cells, because skeletal muscle accounts for about 70-80% of total blood glucose metabolism in the human body.
To examine cellular glucose uptake and metabolism, differentiated (attached) cells in 12-well plates were incubated at 37° C. in a CO2 incubator (95% air: 5% CO2) with D-[^14C]glucose (1 μCi/mL) in 2% FBS-containing medium containing 5.5 mM unlabeled glucose for 0.5-6 hours as indicated at the corresponding Figures. At the termination of incubation, the medium was removed. An aliquot of the medium was taken to determine the loss of [^14C]glucose from the medium which corresponds to its uptake by cells. Cells were washed twice with 3 ml medium to remove traces of medium containing unincorporated radioactivity. Ice-cold 99.8% methanol/0.2% water (v/v) mixture (1 ml) was then added to the monolayers and cells were extracted for 2 hours at −20° C. […] The methanol phase (1 ml) and a following 1 ml methanol wash were added to 2 ml chloroform followed by the addition of 3 ml water. Of the resulting two phases (separation was facilitated by brief centrifugation), the lower phase contained the total radiolabeled lipids, while the upper phase contained [^14C]glucose.
Aliquots of the upper and lower phases were taken to scintillation vials to determine the amounts of radiolabeled glucose and total lipids, respectively, by liquid scintillation counting. Precipitated [^14C]glycogen was suspended in 0.75 ml of 1 M NaOH and transferred to scintillation vial. This procedure was repeated with another 0.75 ml aliquot of NaOH. To neutralize the suspension, […] (approximately 150 μL) was then added to the vials, followed by the addition of 8.5 ml Ecolume (scintillation fluid). While the 1 M NaOH suspension contained some particulate material (mostly protein which was not labeled with radiolabeled glucose), no precipitate remained in the suspension after addition of Ecolume. […] No additional radioactivity could be removed from the well by neutralized 30% KOH.
In some experiments, a published procedure [Huang, D., Cheung, A. T., Parsons, J. T. and Bryer-Ash, M. “Focal adhesion kinase (FAK) regulates insulin-stimulated glycogen synthesis in hepatocytes.” J. Biol. Chem. 277, 18151-18160, (2002)] was used to determine glucose incorporation into glycogen in a method similar to the one described above. After incubations with [^14C] glucose, cells were solubilized with 20% KOH for 2 hours. Lysates were extracted with 8% […], neutralized with 2.0 M HCl, then boiled for 5 min. The total glycogen was precipitated by the addition of 80% ethanol (final concentration) for 2 hours at −20° C. followed by centrifugation at 1100×g for 10 min. This step was repeated.
After the pellets had been re-dissolved in distilled water, the samples were precipitated again using the same method described above, and yielded essentially the same results. In subsequent experiments the initial methanol precipitation method described above was used because it allowed for analysis of cellular glucose, glycogen and lipids from the same sample.
Three groups of differentiated L6 cells, incubated in 12-well plates in 2% FBS-containing medium, were treated as follows. A first control group ([…]) was untreated. A second group (▴) was treated with 500 nM insulin for 30 min. A third group (▪) was treated first with 0.4 mg/ml of AT followed by an addition of 500 nM insulin for 30 min. […]

α1-antitrypsin [AT] was tested, and the “Effect of AT on the insulin effect on [14C]glycogen, short incubation” value (0.4 mg/ml AT, 500 nM insulin, 30 min incubation) was “no such inhibitory effects”, the “Effect of AT on insulin-stimulated synthesis of [14C]glycogen” value (FIG. 3B, 0.4 mg/ml purified AT, incubations for 2 hrs or 6 hours) was “inhibited both insulin effects” and the “Effect of AT on cellular level of [14C]glycogen in the absence of insulin” value (FIG. 4B, 0.05 to 0.4 mg/ml AT, 5 hours) was “did not significantly affect”. For the same substance, the “Decrease of synthesis of cellular [14C]glycogen by AT in the presence of insulin” value (FIG. 4B, 0.2 to 0.4 mg/ml AT, 500 nM insulin, 5 hours) was “at least 50%” and the “Inhibition by AT of the insulin effect on [14C]glycogen synthesis” value (FIG. 5, 0.4 mg/ml AT, 500 nM insulin, 5 hours) was “about 70%”.
